Test results reported in patent publication US20220387358A1, “CERAMIDE ANALOG SACLAC MODULATES SPHINGOLIPID LEVELS AND MCL-1 SPLICING TO INDUCE APOPTOSIS IN ACUTE MYELOID LEUKEMIA” (University of Virginia Patent Foundation, priority 2019, published 2022).

Tests used:
Format in all cases: cell-based, human
[1] = tested on: MCL-1S transcript in OCI-AML2 cells; assay: RT-qPCR of MCL-1S transcript; settings: 5 μM SACLAC; 6 hours
Experimental: Cells were seeded at 2.5×10^5 cells per ml in 6-well plates and treated with DMSO or SACLAC for six hours. Cells were harvested and resuspended in TRIzol reagent (#15596026, Invitrogen, Carlsbad, Calif., United States of America). RNA was isolated using Direct-zol RNA Miniprep Plus (#R2072, Zymo Research, Irvine, Calif., United States of America) according to the manufacturer's protocol. RNA was quantified using the Take3 microplate and the pre-programmed RNA quantification protocol on the Gen5 software for the Cytation 3 plate reader (BioTek, Winooski, Vt., United States of America). DNase treatment and reverse transcription were done using the iScript gDNA Clear cDNA Synthesis Kit (#1725035, Bio-Rad Laboratories, Hercules, Calif., United States of America) in accordance with the manufacturer's protocol. The qPCR reaction contained iTaq Universal SYBR Green (#1725122, Bio-Rad Laboratories, Hercules, Calif., United States of America), 140 ng cDNA and primers specific for HPRT (#100-25636, Bio-Rad Laboratories, Hercules, Calif., United States of America), B2M (#100-25636, Bio-Rad Laboratories, Hercules, Calif., United States of America) and MCL-1S (Eurofins (Luxembourg); forward, 5′-[…]-3′ (SEQ ID NO: 1) and reverse, 5′-[…]-3′ (SEQ ID NO: 2)) (38). This primer pair specifically amplifies Mcl-1 transcript variant 2 (MCL-1S) according to BLAST analysis. […]

[2] = tested on: THP-1, HL60-VCR and KG1a cell lines; assay: Western blot of SF3B1 and Mcl-1S/L in further cell lines; settings: 20 μM SACLAC; 48 hours; all three cell lines
Experimental: Cells were plated at 2.5×10^5 cells per ml in 6-well plates and treated with drug, vehicle or siRNA at the indicated doses and time points. Cells were harvested, washed with PBS and lysed prior to preparation of protein extracts for western blotting.
More particularly, cells were lysed with RIPA buffer (#R0278, Sigma, St. Louis, Mo., United States of America) containing phosphatase inhibitor cocktails 2 and 3 (Sigma #P5726, #P0044) and protease inhibitor cocktail (#P8340, Sigma, St. Louis, Mo., United States of America). Protein was quantified using a bicinchoninic acid (BCA) protein assay kit (#23225, Pierce, Waltham, Mass., United States of America). Samples were resolved on a Bolt 4-12% SDS-PAGE gel (#NW00082, ThermoFisher Scientific, Waltham, Mass., United States of America) and transferred to PVDF membrane (#170-4274, Bio-Rad Laboratories, Hercules, Calif., United States of America). Antibodies were obtained from Cell Signaling Technology (Danvers, Mass., United States of America) unless indicated otherwise. […] Quantification was done using Bio-Rad ImageLab 6.0.1 software (Bio-Rad Laboratories, Hercules, Calif., United States of America). For quantification, bands were normalized to β-actin as a loading control.

OCI-AML2 cells = assay: Apoptosis by flow cytometry (Annexin V); settings: SACLAC 5 μM
Experimental: Apoptosis in cell lines was assessed after treating 2.5×10^5 cells per ml with drug or vehicle in a 48-well plate for the indicated time points and doses. Primary human AML cells were pre-incubated with SFEM for 48 hours before plating 2×10^5 cells in 24-well plates for the indicated times point and doses. Samples were stained using the Muse Annexin V & Dead Cell Kit (Millipore #MCH100105). Change in mitochondrial membrane potential in cell lines was measured with the Muse® MitoPotential Kit (#MCH100110, MilliporeSigma, Burlington, Mass., United States of America). Caspase activation was measured using the Muse® Caspase 3/7 Assay Kit (#MCH100108, MilliporeSigma, Burlington, Mass., United States of America). For rescue experiments, cells were plated at 2.5×10^4 well in a 96-well plate 24 hours after electroporation. Cells were treated with DMSO or SACLAC for 48 hours and apoptosis was detected as stated above. All kits were used according to manufacturer's protocol. Cells were then analyzed using the Muse® Cell Analyzer (MilliporeSigma, Burlington, Massachusetts, United States of America) (35,36). Experiments included positive and negative controls for proper analysis.

With `CCCCCCCCCCCCCCC[C@@H](O)[C@H](CO)NC(=O)CCl` [SACLAC, N-[(2S,3R)-1,3-dihydroxyoctadecan-2-yl]2-chloroacetamide] the MCL-1S transcript level [1] was “Increased”, the SF3B1 levels [2] was “reduced” and the “ratio of Mcl-1S/L” value [2] was “increased”. For the same compound, the apoptosis (OCI-AML2 cells; 12 hours) was 79% and the apoptosis (OCI-AML2 cells; 24 hours) was “nearly all cells undergoing apoptosis”.
